Columns and labels:
SIMA = test: cells; assay type: functional, cell-based, Homo sapiens; settings: Homo sapiens, SIMA;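 also: growth inhibition of SIMA cells, measured with a cell viability readout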
Description: SANGER: Inhibition of human SIMA cell growth in a cell viability assay.

RT-112 = test: cells; assay type: functional, cell-based; settings: Homo sapiens
Description: SANGER: Inhibition of human RT-112 cell growth in a cell viability assay.

UO-31 = test: cells; assay type: functional, cell-based; settings: Homo sapiens
Description: SANGER: Inhibition of human U031 cell growth in a cell viability assay.

SKG-IIIa = test: cells; assay type: functional, cell-based; settings: Homo sapiens;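 also: cell growth inhibition, read out with a cell viability assay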
Description: SANGER: Inhibition of human SKG-IIIa cell growth in a cell viability assay.

NCI-H1623 = test: cells; assay type: functional, cell-based; settings: Homo sapiens;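 also: cell viability assay used as the read-out for growth inhibition of NCI-H1623 cells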
Description: SANGER: Inhibition of human NCI-H1623 cell growth in a cell viability assay.

LOUCY = test: cells; assay type: functional, cell-based, Homo sapiens; settings: Homo sapiens, LOUCY;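 also: growth inhibition of human LOUCY cells, read out with a cell viability assay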
Description: SANGER: Inhibition of human LOUCY cell growth in a cell viability assay.

PF-382 = test: cells; assay type: functional, cell-based, Homo sapiens; settings: Homo sapiens, PF-382
Description: SANGER: Inhibition of human PF-382 cell growth in a cell viability assay.

NCI-H1882 = test: cells; assay type: functional, cell-based, Homo sapiens; settings: Homo sapiens, NCI-H1882;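 also: growth inhibition of the cell line, determined with a viability assay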
Description: SANGER: Inhibition of human NCI-H1882 cell growth in a cell viability assay.

KOSC-2 = test: cells; assay type: functional, cell-based; settings: Homo sapiens;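 also: growth inhibition of KOSC-2 cells, read out by a cell viability assay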
Description: SANGER: Inhibition of human KOSC-2 cell growth in a cell viability assay.

TCC-SUP = test: cells; assay type: functional, cell-based; settings: Homo sapiens;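 also: growth inhibition of TCC-SUP cells, read out with a cell viability assay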
Description: SANGER: Inhibition of human TCCSUP cell growth in a cell viability assay.

Huh-7 = test: cells; assay type: functional, cell-based; settings: Homo sapiens;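 also: HuH-7 cell growth inhibition, read out with a cell viability assay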
Description: SANGER: Inhibition of human HuH-7 cell growth in a cell viability assay.

ME-180 = test: cells; assay type: functional, cell-based; settings: Homo sapiens;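 also: cell viability assay measuring growth inhibition of ME-180 cells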
Description: SANGER: Inhibition of human ME-180 cell growth in a cell viability assay.

Hs-578T = test: cells; assay type: functional, cell-based; settings: Homo sapiens
Description: SANGER: Inhibition of human Hs-578-T cell growth in a cell viability assay.

NCI-H2141 = test: cells; assay type: functional, cell-based, Homo sapiens; settings: Homo sapiens, NCI-H2141;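 also: growth inhibition of human NCI-H2141 cells, read out with a cell viability assay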
Description: SANGER: Inhibition of human NCI-H2141 cell growth in a cell viability assay.

NCI-H650 = test: cells; assay type: functional, cell-based; settings: Homo sapiens;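 also: growth inhibition of NCI-H650 cells, read out by a viability assay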
Description: SANGER: Inhibition of human NCI-H650 cell growth in a cell viability assay.

HCC1569 = test: cells; assay type: functional, cell-based; settings: Homo sapiens;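 also: growth inhibition of human HCC1569 cells, read out with a cell viability assay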
Description: SANGER: Inhibition of human HCC1569 cell growth in a cell viability assay.

COLO-680N = test: cells; assay type: functional, cell-based; settings: Homo sapiens;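 also: cell viability assay used to measure inhibition of COLO-680N cell growth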
Description: SANGER: Inhibition of human COLO-680N cell growth in a cell viability assay.

SW756 = test: cells; assay type: functional, cell-based; settings: Homo sapiens;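 also: growth inhibition of human SW756 cells, read out with a cell viability assay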
Description: SANGER: Inhibition of human SW756 cell growth in a cell viability assay.

HT-29 = test: cells; assay type: functional, cell-based; settings: Homo sapiens;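 also: growth inhibition of human HT-29 cells, read out by a cell viability assay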
Description: SANGER: Inhibition of human HT-29 cell growth in a cell viability assay.

BHT-101 = test: cells; assay type: functional, cell-based; settings: Homo sapiens
Description: SANGER: Inhibition of human BHT-101 cell growth in a cell viability assay.

SCLC-21H = test: cells; assay type: functional, cell-based, Homo sapiens; settings: Homo sapiens, SCLC-21H;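 also: growth inhibition of cultured human SCLC-21H cells, read out with a cell viability assay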
Description: SANGER: Inhibition of human SCLC-21H cell growth in a cell viability assay.

UACC-62 = test: cells; assay type: functional, cell-based; settings: Homo sapiens;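 also: growth inhibition of human UACC-62 cells, read out by a cell viability assay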
Description: SANGER: Inhibition of human UACC-62 cell growth in a cell viability assay.

Panc1005 = test: cells; assay type: functional, cell-based; settings: Homo sapiens;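 also: growth inhibition of human PANC-10-05 cells, measured by a cell viability assay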
Description: SANGER: Inhibition of human PANC-10-05 cell growth in a cell viability assay.

HSC-4 = test: cells; assay type: functional, cell-based; settings: Homo sapiens;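 also: growth inhibition of human HSC-4 cells, read out with a cell viability assay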
Description: SANGER: Inhibition of human HSC-4 cell growth in a cell viability assay.

UACC-893 = test: cells; assay type: functional, cell-based; settings: Homo sapiens
Description: SANGER: Inhibition of human UACC-893 cell growth in a cell viability assay.

HuO9 = test: cells; assay type: functional, cell-based; settings: Homo sapiens;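 also: growth inhibition of HuO9 cells, read out with a cell viability assay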
Description: SANGER: Inhibition of human HuO9 cell growth in a cell viability assay.

HCC 2998 = test: cells; assay type: functional, cell-based; settings: Homo sapiens;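 also: growth inhibition of human HCC2998 cells, measured with a cell viability read-out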
Description: SANGER: Inhibition of human HCC2998 cell growth in a cell viability assay.

KYSE-410 = test: cells; assay type: functional, cell-based; settings: Homo sapiens;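 also: growth inhibition of KYSE-410 cells, measured through a cell viability readout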
Description: SANGER: Inhibition of human KYSE-410 cell growth in a cell viability assay.

NCI-H1993 = test: cells; assay type: functional, cell-based; settings: Homo sapiens;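 also: growth inhibition of the cancer cell line, assessed with a cell viability assay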
Description: SANGER: Inhibition of human NCI-H1993 cell growth in a cell viability assay.

CPC-N = test: cells; assay type: functional, cell-based, Homo sapiens; settings: Homo sapiens, CPC-N;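 also: growth inhibition of CPC-N cells, with a cell viability assay as the readout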
Description: SANGER: Inhibition of human CPC-N cell growth in a cell viability assay.

AN3-CA = test: cells; assay type: functional, cell-based; settings: Homo sapiens;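 also: growth inhibition of human AN3-CA cells measured by a cell viability assay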
Description: SANGER: Inhibition of human AN3-CA cell growth in a cell viability assay.

HEC-1 = test: cells; assay type: functional, cell-based; settings: Homo sapiens;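 also: growth inhibition of the cell line, read out with a cell viability assay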
Description: SANGER: Inhibition of human HEC-1 cell growth in a cell viability assay.

CP66-MEL = test: cells; assay type: functional, cell-based; settings: Homo sapiens;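 also: growth inhibition of CP66-MEL cells determined in a cell viability assay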
Description: SANGER: Inhibition of human CP66-MEL cell growth in a cell viability assay.

BXPC-3 = test: cells; assay type: functional, cell-based; settings: Homo sapiens;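 also: growth inhibition of human BxPC-3 cells, read out by a cell viability assay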
Description: SANGER: Inhibition of human BxPC-3 cell growth in a cell viability assay.

MDA-MB-231 = test: cells; assay type: functional, cell-based; settings: Homo sapiens
Description: SANGER: Inhibition of human MDA-MB-231 cell growth in a cell viability assay.

T-24 = test: cells; assay type: functional, cell-based; settings: Homo sapiens;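 also: growth inhibition of T-24 cells, read out with a cell viability assay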
Description: SANGER: Inhibition of human T-24 cell growth in a cell viability assay.

NCI-H2196 = test: cells; assay type: functional, cell-based, Homo sapiens; settings: Homo sapiens, NCI-H2196; read-out: IC50;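 also: cell viability assay used as the readout of growth inhibition in NCI-H2196 cells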
Description: SANGER: Inhibition of human NCI-H2196 cell growth in a cell viability assay.

M059J = test: cells; assay type: functional, cell-based; settings: Homo sapiens;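 also: growth inhibition of M059J cells, read out with a cell viability assay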
Description: SANGER: Inhibition of human M059J cell growth in a cell viability assay.

ECC4 = test: cells; assay type: functional, cell-based, Homo sapiens; settings: Homo sapiens, ECC4;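 also: growth inhibition of ECC4 cells, read out with a cell viability assay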
Description: SANGER: Inhibition of human ECC4 cell growth in a cell viability assay.

YKG-1 = test: cells; assay type: functional, cell-based; settings: Homo sapiens;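 also: cell growth inhibition, read out with a viability assay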
Description: SANGER: Inhibition of human YKG-1 cell growth in a cell viability assay.

LC-1F = test: cells; assay type: functional, cell-based, Homo sapiens; settings: Homo sapiens, LC-1F;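 also: growth inhibition of human LC-1F cells, read out with a cell viability assay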
Description: SANGER: Inhibition of human LC-1F cell growth in a cell viability assay.

SK-MEL-30 = test: cells; assay type: functional, cell-based; settings: Homo sapiens;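 also: growth inhibition of SK-MEL-30 cells, determined with a cell viability assay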
Description: SANGER: Inhibition of human SK-MEL-30 cell growth in a cell viability assay.

SCC-3 = test: cells; assay type: functional, cell-based, Homo sapiens; settings: Homo sapiens, SCC-3;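 also: cell viability assay measuring inhibition of SCC-3 cell growth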
Description: SANGER: Inhibition of human SCC-3 cell growth in a cell viability assay.

NCI-H460 = test: cells; assay type: functional, cell-based; settings: Homo sapiens;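 also: cell viability assay scoring growth inhibition of human NCI-H460 cells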
Description: SANGER: Inhibition of human NCI-H460 cell growth in a cell viability assay.

NB12 = test: cells; assay type: functional, cell-based; settings: Homo sapiens;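 also: growth inhibition of human NB12 cells, read out by a cell viability assay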
Description: SANGER: Inhibition of human NB12 cell growth in a cell viability assay.

WM-115 = test: cells; assay type: functional, cell-based; settings: Homo sapiens
Description: SANGER: Inhibition of human WM-115 cell growth in a cell viability assay.

SNU-423 = test: cells; assay type: functional, cell-based; settings: Homo sapiens
Description: SANGER: Inhibition of human SNU-423 cell growth in a cell viability assay.

JEG-3 = test: cells; assay type: functional, cell-based; settings: Homo sapiens;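 also: growth inhibition of human JEG-3 cells, read out with a cell viability assay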
Description: SANGER: Inhibition of human JEG-3 cell growth in a cell viability assay.

TUR = test: cells; assay type: functional, cell-based, Homo sapiens; settings: Homo sapiens, TUR;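 also: growth inhibition of human TUR cells, read out with a cell viability assay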
Description: SANGER: Inhibition of human TUR cell growth in a cell viability assay.

CHP-126 = test: cells; assay type: functional, cell-based, Homo sapiens; settings: Homo sapiens, CHP-126
Description: SANGER: Inhibition of human CHP-126 cell growth in a cell viability assay.

SW1710 = test: cells; assay type: functional, cell-based; settings: Homo sapiens;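 also: growth inhibition of SW1710 cells, determined with a cell viability assay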
Description: SANGER: Inhibition of human SW1710 cell growth in a cell viability assay.

LC4-1 = test: cells; assay type: functional, cell-based, Homo sapiens; settings: Homo sapiens, LC4-1;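 also: growth inhibition of LC4-1 cells, read out with a cell viability assay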
Description: SANGER: Inhibition of human LC4-1 cell growth in a cell viability assay.

NCI-H661 = test: cells; assay type: functional, cell-based; settings: Homo sapiens;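 also: cell viability assay read-out, IC50 being the concentration that inhibits growth of the cells by half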
Description: SANGER: Inhibition of human NCI-H661 cell growth in a cell viability assay.

EB-3 = test: cells; assay type: functional, cell-based, Homo sapiens; settings: Homo sapiens, EB-3;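 also: human EB-3 cells, growth inhibition read out via a cell viability assay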
Description: SANGER: Inhibition of human EB-3 cell growth in a cell viability assay.

CAL-27 = test: cells; assay type: functional, cell-based; settings: Homo sapiens;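 also: Viability-based readout, IC50 reflecting inhibition of CAL-27 cell growth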
Description: SANGER: Inhibition of human CAL-27 cell growth in a cell viability assay.

MDA-MB-415 = test: cells; assay type: functional, cell-based; settings: Homo sapiens
ST486 = test: SANGER: Inhibition of human ST486 cell growth in a cell viability assay.; assay type: functional, cell-based; settings: Homo sapiens, ST486
NY = test: cells; assay type: functional, cell-based; settings: Homo sapiens
Description: SANGER: Inhibition of human NY cell growth in a cell viability assay.

HT55 = test: cells; assay type: functional, cell-based; settings: Homo sapiens;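 also: cell viability readout measuring growth inhibition of human HT55 cells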
Description: SANGER: Inhibition of human HT55 cell growth in a cell viability assay.

C3A = test: cells; assay type: functional, cell-based; settings: Homo sapiens;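 also: growth inhibition of C3A human cells, quantified with a cell viability readout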
Description: SANGER: Inhibition of human C3A cell growth in a cell viability assay.

Measured: IC50

COC(=O)[C@H](CCSC)NC(=O)c1ccc(NC[C@@H](N)CS)cc1-c1ccccc1
> 1.02 µM: all assays above
